Where a name gives a salt, the structure may show the parent alone.
Tests used:
[1] = tested on: soybean (Glycine max) Adelphia; test: Dwarfing and stem stiffening of soybeans (plant height, greenhouse, foliar spray); type: in vivo; details: three weeks after spraying
Description: (§1) In the following tests, test compounds are dissolved or dispersed in acetone-water (1:1) mixtures at the final concentration corresponding to the kg/ha rates indicated in the table below. The solution also contains 0.25% v/v colloidal BIOFILM® (a product of Colloidal Products Corp.) which is a mixture of alkyl aryl polyethoxyethanol, free and combined fatty acids, glycol ethers, dialkylbenzene carboxylate and 2-propanol.
(§2) The plant species used in these tests are barley (Hordeum vulgare), (Mexico) and soybean (Glycine max)Adelphia.
(§3) The solution or dispersion of the compound under test is sprayed at a rate of 747 l/ha with a moving nozzle along an overhead stationary track. The spray nozzle moves at a constant speed over the plants.
(§4) The plants are grown in plastic pots, and are well established at the time of treatment. The seedlings of barley are 10 to 20 cm in height, while the seedlings of soybeans are at the second to third trifoliate stage. Plants are watered prior to treatment and then sprayed to provide the kg/ha rate of test compound desired. After spraying the plants are placed on greenhouse benches and watered and fertilized in accordance with normal greenhouse procedures.
(§5) Three weeks after spraying the plants are measured and harvested. Harvesting is done at the boot stage. All treatments are replicated six times and comparisons are made against untreated controls. Data obtained are reported in Table VI below as percent reduction in plant height over untreated controls.

[2] = tested on: soybeans (Glycine max) Adelphia variety; test: Increasing axillary branching and improving the canopy of broad leaf plants (soybeans); type: in vivo, soybean (Glycine max); details: three weeks after treatment
Description: In these tests seedling soybean plants approximately three weeks old, and grown in plastic pots to the 2nd to 3rd trifoliate stage, are sprayed with solutions or dispersions of test compound prepared as described in Example 7 above. The same spraying apparatus, described in Example 7 above, is used and after spraying the plants are placed on greenhouse benches and watered and fertilized. Three weeks after treatment the plants are examined to determine what effect the application of test compound has had on the axillary branching and canopy development of the treated plants.
Increased axillary branching and improved canopy are biological responses which are highly advantageous in the growing of ornamental plants. These responses also have advantage in many crops since increased branching may result in the greater production of fruit, while improved canopy tends to shade and suppress the growth of undesirable weeds that compete with the crops for sunlight, water and plant nutrients. Data obtained are reported in table VII below where axillary branching and canopy are reported as percent increase over untreated controls.

[3] = tested on: soybeans (Glycine max) var. Adelphia; test: Increasing flowering of plants (soybeans); type: in vivo, soybean (Glycine max); details: three weeks after spraying
Description: In the following tests seedling soybean plants growing in plastic cups are sprayed with aqueous-acetone solutions or dispersions of test compounds when they have reached the 2nd to 3rd trifoliate stage. Test solutions or dispersions are prepared with 0.25 v/v Colloidal BIOFILM® surfactant and sufficient test compound to provide the plants with 0.5, 0.25, 0.125 or 0.06 kg/ha of said compound when the test solutions are sprayed on said plants from an overhead sprayer delivering 747 l/ha of solution.
After spraying the plants are placed on greenhouse benches and watered and fertilized. Three weeks after spraying the plants are examined and the amount of flowering determined for all plants. Data obtained are reported in the table below as percent increase in flowering over untreated controls.
From the data reported in Table VIII below it can be seen that the compounds of the present invention applied at rates of from 0.06 to 0.25 kg/ha enhance flowering of treated plant more than 10% over untreated controls. This response is particularly desirable for treatment of flowering varieties of ornamental plants as well as agronomic crops.

barley (Hordeum vulgare) = test: Dwarfing of barley (plant height, greenhouse, foliar spray); type: in vivo; details: three weeks after spraying
Description: as §1, §2, §3, §4, §5

[4] = rate 0.125 kg/ha, listed as Methylamine salt with 2,4,6-tribromo-N--aci-nitroaniline
[5] = rate 0.125 kg/ha, potassium salt
[6] = rate 0.25 kg/ha, potassium salt

O=[N+]([O-])Nc1c(Br)cc(Br)cc1Br [1,1-Dimethylpiperidinium salt with 2,4,6-tribromo-N--aci-nit] [1,1-Dimethylpiperidinium salt with 2,4,6-tribromo-N--aci-nitroaniline]
% Reduction in Plant Height over untreated controls ([1]; rate 0.125 kg/ha): > 25%
% Reduction in Plant Height over untreated controls ([1]; rate 0.25 kg/ha): > 35%
% Reduction in Plant Height over untreated controls ([1]; rate 0.5 kg/ha): > 50%
% Increase in Plant Canopy over untreated controls ([2]; rate 0.125 kg/ha): normal
% Increase in axillary branching over untreated controls ([2]; rate 0.125 kg/ha): normal
% Increase in axillary branching over untreated controls ([2]; rate 0.25 kg/ha): normal
% Increase in Flowering over untreated controls ([3]; rate 0.125 kg/ha): normal

Cn1c(-c2ccccc2)cc(-c2ccccc2)[n+]1C.O=[N+]([O-])[N-]c1c(Br)cc(Br)cc1I [1,2-Dimethyl-3,5-diphenylpyrazolium salt with 2,4-dibromo-6-iodo-N--aci-nitroaniline]
% Reduction in Plant Height over untreated controls ([1]; rate 0.125 kg/ha): > 10%
% Reduction in Plant Height over untreated controls ([1]; rate 0.25 kg/ha): > 15%
% Reduction in Plant Height over untreated controls ([1]; rate 0.5 kg/ha): > 25%
% Increase in Flowering over untreated controls ([3]; rate 0.5 kg/ha): normal

O=[N+]([O-])Nc1c(Br)cc(Br)cc1Br [2,4,6-Tribromo-N--nitroaniline tetrabutyl, ammonium salt]
% Reduction in Plant Height over untreated controls (barley (Hordeum vulgare); rate 0.17 kg/ha, ammonium salt): 10.5%
% Reduction in Plant Height over untreated controls (barley (Hordeum vulgare); rate 1.5 kg/ha, ammonium salt): 15.8%

O=[N+]([O-])Nc1c(Br)cc(Br)cc1Br [2,4,6-Tribromo-N--nitroaniline with ammonia (1:1)]
% Reduction in Plant Height over untreated controls ([1]; rate 0.5 kg/ha): > 60%
% Reduction in Plant Height over untreated controls ([1]; rate 2.0 kg/ha): > 60%
% Increase in Plant Canopy over untreated controls ([2]; rate 0.5 kg/ha): Injury
% Reduction in Plant Height over untreated controls (barley (Hordeum vulgare); rate 0.50 kg/ha): 16.3%
% Reduction in Plant Height over untreated controls (barley (Hordeum vulgare); rate 1.5 kg/ha): 15.3%

O=[N+]([O-])Nc1c(Br)cc(Br)cc1Br [2,4,6-Tribromo-N--nitroaniline with dibenzylamine]
% Increase in Plant Canopy over untreated controls ([2]; rate 0.125 kg/ha): normal
% Increase in axillary branching over untreated controls ([2]; rate 0.125 kg/ha): normal
% Increase in axillary branching over untreated controls ([2]; rate 0.25 kg/ha): normal
% Increase in Flowering over untreated controls ([3]; rate 0.125 kg/ha): normal

O=[N+]([O-])Nc1c(Br)cc(Br)cc1Br [2,4,6-Tribromo-N--nitroaniline with dodecylamine]
% Increase in Plant Canopy over untreated controls ([2]; rate 0.125 kg/ha): normal
% Increase in axillary branching over untreated controls ([2]; rate 0.125 kg/ha): normal
% Increase in Flowering over untreated controls ([3]; rate 0.125 kg/ha): normal

O=[N+]([O-])Nc1c(Br)cc(Br)cc1Br [2,4,6-Tribromo-N--nitroaniline with methylamine (1:1)]
% Reduction in Plant Height over untreated controls ([1]; rate 0.5 kg/ha): > 60%
% Reduction in Plant Height over untreated controls ([1]; rate 2.0 kg/ha): > 60%
% Increase in Plant Canopy over untreated controls [2, 4]: normal
% Increase in axillary branching over untreated controls [2, 4]: normal
% Increase in axillary branching over untreated controls ([2]; rate 0.25 kg/ha, listed as Methylamine salt with 2,4,6-tribromo-N--aci-nitroaniline): normal
% Increase in axillary branching over untreated controls ([2]; rate 0.5 kg/ha, listed as Methylamine salt with 2,4,6-tribromo-N--aci-nitroaniline): normal
% Reduction in Plant Height over untreated controls (barley (Hordeum vulgare); rate 0.11 kg/ha): 10%
% Reduction in Plant Height over untreated controls (barley (Hordeum vulgare); rate 0.56 kg/ha): > 50%
% Reduction in Plant Height over untreated controls (barley (Hordeum vulgare); rate 2.24 kg/ha): > 50%

O=[N+]([O-])Nc1c(Br)cc(Br)cc1Br [2,4,6-Tribromo-N--nitroaniline with octylamine (1:1)]
% Increase in axillary branching over untreated controls ([2]; rate 0.125 kg/ha, octylamine salt): normal
% Increase in Plant Canopy over untreated controls ([2]; rate 0.5 kg/ha, octylamine salt): slight reduction
% Reduction in Plant Height over untreated controls (barley (Hordeum vulgare); rate 0.17 kg/ha): 10.5%
% Reduction in Plant Height over untreated controls (barley (Hordeum vulgare); rate 0.50 kg/ha): 13.0%
% Reduction in Plant Height over untreated controls (barley (Hordeum vulgare); rate 1.5 kg/ha): 11.1%

O=[N+]([O-])Nc1c(Br)cc(Br)cc1Br [2,4,6-Tribromo-N--nitroaniline, potassium salt]
% Reduction in Plant Height over untreated controls [1, 5]: > 5%
% Reduction in Plant Height over untreated controls [1, 6]: > 5%
% Reduction in Plant Height over untreated controls ([1]; rate 0.5 kg/ha, potassium salt): > 30%
% Increase in axillary branching over untreated controls [2, 5]: normal
% Increase in axillary branching over untreated controls [2, 6]: normal
% Increase in Plant Canopy over untreated controls ([2]; rate 0.5 kg/ha, potassium salt): normal
% Reduction in Plant Height over untreated controls (barley (Hordeum vulgare); rate 0.17 kg/ha, potassium salt): 2.7%
% Reduction in Plant Height over untreated controls (barley (Hordeum vulgare); rate 0.50 kg/ha, potassium salt): 11.8%
% Reduction in Plant Height over untreated controls (barley (Hordeum vulgare); rate 1.5 kg/ha, potassium salt): 2.0%
% Increase in Flowering over untreated controls ([3]; rate 0.5 kg/ha, potassium salt): normal

O=[N+]([O-])Nc1c(Br)cc(Br)cc1Br [2,4,6-Tribromo-N--nitroaniline, sodium salt]
% Reduction in Plant Height over untreated controls ([1]; rate 0.125 kg/ha, sodium salt): > 35%
% Reduction in Plant Height over untreated controls ([1]; rate 0.25 kg/ha, sodium salt): > 40%
% Reduction in Plant Height over untreated controls (barley (Hordeum vulgare); rate 0.17 kg/ha, sodium salt): 6.2%
% Reduction in Plant Height over untreated controls (barley (Hordeum vulgare); rate 0.50 kg/ha, sodium salt): 13.0%
% Reduction in Plant Height over untreated controls (barley (Hordeum vulgare); rate 1.5 kg/ha, sodium salt): 13.0%
% Increase in Flowering over untreated controls ([3]; rate 0.5 kg/ha, sodium salt): normal

O=[N+]([O-])Nc1c(Br)cc(Br)cc1Br [Methyltriphenyl phosphonium salt with 2,4,6-tribromo-N--aci-] [Methyltriphenyl phosphonium salt with 2,4,6-tribromo-N--aci-nitroaniline]
% Reduction in Plant Height over untreated controls ([1]; rate 0.125 kg/ha): > 25%
% Reduction in Plant Height over untreated controls ([1]; rate 0.25 kg/ha): > 35%
% Reduction in Plant Height over untreated controls ([1]; rate 0.5 kg/ha): > 50%
% Increase in Plant Canopy over untreated controls ([2]; rate 0.125 kg/ha): normal
% Increase in axillary branching over untreated controls ([2]; rate 0.125 kg/ha): normal
% Increase in axillary branching over untreated controls ([2]; rate 0.25 kg/ha): normal
% Increase in Flowering over untreated controls ([3]; rate 0.125 kg/ha): normal

— US4367339A, “Substituted N-nitroaniline compounds and inorganic and organic salts thereof useful for enhancing auxiliary branching, canopy flowering and crop yield of plant and as lodging inhibitors therefor” (priority 1980, dated 1983)
